Publication PMC4308941 (Cough (London, England), 2014)
Blank lines part the entries; values can stand above or below the compound they belong to.

Legend:
[1] = system: normotensive volunteers / hypertensive patients; parameters: method as in PMID 11116103; details: cited from earlier work
[2] = system: healthy volunteers; experiment: Adverse event and vital signs monitoring; assay type: in vivo, human
Protocol: (§1) This was a repeated-dose, balanced, two-sequence, two-period, two-treatment, non-placebo controlled, randomized, crossover design study. Since this study examined two ACE-i agents with similar characteristics and was performed using an open design, blinding was not necessary. […] The administered doses were those used for treatment of hypertension and which would yield a similar percentage of responders.

[3] = system: bradykinin (BK); experiment: Bradykinin plasma levels; assay type: in vivo, human; details: day 7 of treatment period, zofenopril 30 mg vs ramipril 10 mg
Protocol: (§2) Blood samples for the measurement of PK parameters and for BK determination were obtained at pre-dose and after drug administration for each of the two study periods (Table 2). […] Repeated pre-dose PK variables determination was performed in order to establish baseline variability.

[4] = system: rabbits; details: cited from earlier work
[5] = system: healthy volunteers; experiment: Airway inflammation by fractional exhaled nitric oxide (FeNO); assay type: in vivo, human
Excerpt: FeNO measurements were always performed before cough challenges using a standardized single-breath method with an electrochemical analyzer (HypAir FeNO system, Medisoft, Sorinnes, BE). Subjects were seated (with no nose clip), and exhaled to residual volume, inserted the mouthpiece, inhaled to total lung capacity, then exhaled for 10 seconds at a constant flow rate of 0.05 L/s ± 10%. The end-point of measurement was considered when a plateau of at least 4 seconds was observed. Exhalations were repeated after a 30-second period of relaxation until 3 independent FeNO values with ≤10% variation were obtained.

[6] = system: guinea pigs; details: cited from earlier work
[7] = single dose, cited from earlier work
[8] = system: healthy volunteers; experiment: Spontaneous cough recordings (diary); assay type: in vivo, human; details: for total distinct coughing episodes: during 7-day treatment, 40 volunteers; for volunteers who recorded at least 1 spontaneous coughing episode: out of 40, during 7-day treatment
Protocol: (§3) Capsaicin and citric acid cough challenges were performed prior to and following each 7-day treatment period (Table 2). Cough sensitivity was assessed as the lowest capsaicin or citric acid concentrations causing at least 2 (C2) or 5 coughs (C5), provided that cough was still present following inhalation of the next tussigenic concentration. C2 and C5 values were converted to logC2 and logC5, respectively, for analysis. Concentrations of both capsaicin and citric acid were prepared according to standard procedures, nebulized by a jet nebulizer (DeVilbiss 646, DeVilbiss Health Care Inc., Somerset, PA) driven by compressed air (8 L/min), and inhaled for 1 min during normal tidal breathing. Volunteers undergoing cough challenges were specifically instructed not to attempt to suppress coughs and not to talk immediately after inhalation of the tussigenic agent. In addition, subjects were given the following instruction: “allow yourself to cough if you need to, and as much as you need to”. Subjects were also requested to note on a diary the occurrence of spontaneous cough during the two 7-day treatment periods, using a verbal scale.
A p value <0.05 was considered statistically significant.

[9] = system: healthy volunteers; experiment: Citric acid cough challenge (cough sensitivity C2/C5); assay type: in vivo, human
Protocol: as §1, §3

[10] = system: healthy volunteers; experiment: Capsaicin cough challenge (cough sensitivity C2/C5); assay type: in vivo, human
Protocol: as §1, §3

[11] = system: ACE; details: compared with complexes of other ACE inhibitors; cited from earlier work
[12] = cited from earlier work
[13] = Plasma pharmacokinetics at steady state (day 7)
Protocol: as §2
Spontaneous cough occurring during the two treatment periods was only qualitatively assessed, as the prevalence was expected to be low or very low. AUCss,τ PK parameters were calculated from the individual concentration-time data by using the program WinNonlin software (Pharsight Corporation, Mountain View, CA, USA) and summarized by treatment by means of descriptive statistics, in order to determine mean and standard deviation values. Paired t-test was used to compare mean FeNO values recorded after administration of the test and the reference drug. Statistical analyses were performed by using GraphPad Prism, version 3.02 (GraphPad Software, Inc. La Jolla, CA); sample size and power calculations were performed by using a dedicated software (nQuery Advisor, release 2.0, Los Angeles, CA). A p value <0.05 was considered statistically significant.

[14] = system: plasma ACE activity; details: at 24 h after single oral doses of 30 mg; cited from earlier work
[15] = system: prostaglandins; parameters: method as in PMID 1850188; details: in-vivo study, compared with other ACE-i; cited from earlier work

Structure (SMILES): CCOC(=O)[C@H](CCc1ccccc1)N[C@@H](C)C(=O)N1CCC[C@H]1C(=O)O [enalapril]
- effect on FeNO in hypertensive patients [1]: did not show FeNO increase
- effect on FeNO in normotensive volunteers ([1]; within a few hours): capable of increasing FeNO

- FeNO, mean ± SD ([5]; in vivo): 33 ± 16 PPB
- total distinct coughing episodes [8]: 24
- volunteers who recorded at least 1 spontaneous coughing episode [8]: 9
- citric acid LogC2, mean ± SD ([9]; human, in vivo, 7 days): 1.48 ± 1.09 mM
- citric acid LogC5, mean ± SD ([9]; human, in vivo, 7 days): 2.23 ± 1.04 mM
- capsaicin LogC5 (concentration causing at least 5 coughs), mean ± SD ([10]; human, in vivo, 7 days): 0.45 ± 0.38 μM
Structure (SMILES): CCOC(=O)[C@H](CCc1ccccc1)N[C@@H](C)C(=O)N1[C@H](C(=O)O)C[C@@H]2CCC[C@@H]21 [ramipril]
- subjects reporting adverse events of mild intensity ([2]; human, in vivo, 7 days): 5
- BK plasma levels after administration [3]: No difference
- cough response induced by mechanical and chemical airway stimulation [4]: increased
- augmentation of citric-acid induced cough [6]: 40-60%
- time to peak antihypertensive effect ([7]; after oral administration): 3 to 6 h
- duration of antihypertensive effect ([7]; oral): 24 h

Structure (SMILES): C[C@H](N[C@@H](CCc1ccccc1)C(=O)O)C(=O)N1[C@H](C(=O)O)C[C@@H]2CCC[C@@H]21 [ramiprilat]
- stability/dissociation of inhibitor-ACE complex [11]: dissociates more slowly
- time to peak plasma concentrations ([12]; after intake of ramipril): 2 to 4 h

Structure (SMILES): C[C@H](CSC(=O)c1ccccc1)C(=O)N1C[C@@H](Sc2ccccc2)C[C@H]1C(=O)O [zofenopril]
- subjects reporting adverse events of mild intensity ([2]; of 40 subjects, headache, vomit, backache, vertigo): 8
- BK plasma levels after administration [3]: No difference
- cough response induced by mechanical and chemical airway stimulation [4]: but not zofenopril, increased
- FeNO, mean ± SD ([5]; after 7-day treatment, controls 22 ± 12 (zofenopril), 24 ± 9.6 (ramipril)): 26 ± 12 PPB
- effect on citric-acid induced cough [6]: did not increase
- total distinct coughing episodes [8]: 36
- volunteers who recorded at least 1 spontaneous coughing episode [8]: 7
- Cmin (lowest plasma concentration in the τ period) ([13]; 24 h interval after administration on day 7): 0
- AUCss,τ, mean ± SD ([13]; 24 h interval after drug administration on day 7, zofenopril 30 mg/day or ramipril 10 mg/day oral): 84.25 ± 34.47 ng/ml x h
- suppression of plasma ACE activity [14]: 74.4%
- citric acid LogC2, mean ± SD ([9]; after 7-day treatment, 40 volunteers, controls 1.85 ± 1.24 (zofenopril), 1.80 ± 1.28 (ramipril)): 1.81 ± 1.27 mM
- citric acid LogC5, mean ± SD ([9]; after 7-day treatment, 40 volunteers, controls 2.69 ± 1.88 (zofenopril), 2.67 ± 2.01 (ramipril)): 2.51 ± 1.57 mM
- oral absorption ([12]; after oral administration): completely absorbed
- capsaicin LogC2 (concentration causing at least 2 coughs), mean ± SD ([10]; after 7-day treatment (zofenopril 30 mg/day, ramipril 10 mg/day), 40 volunteers, controls 0.81 ± 0.42 (zofenopril), 0.78 ± 0.41 (ramipril)): 0.75 ± 0.40 μM
- capsaicin LogC5 (concentration causing at least 5 coughs), mean ± SD ([10]; after 7-day treatment, 40 volunteers, controls 1.4 ± 0.72 (zofenopril), 1.3 ± 0.63 (ramipril)): 1.3 ± 0.68 μM
- capability to stimulate the production of prostaglandins [15]: less than that of other ACE-i

Structure (SMILES): C[C@H](CS)C(=O)N1C[C@@H](Sc2ccccc2)C[C@H]1C(=O)O [zofenoprilat]
- time to peak blood levels ([12]; after oral administration of zofenopril): 1.5 h
